Test results taken from US20260216294A1, “BETA 2-ADRENERGIC RECEPTOR AGONISTS FOR TREATMENT OR PREVENTION OF MUSCLE WASTING” (ATROGI AB, priority 2023, published 2026).

Experiments:
L6-myotubes [1] = assay: Measurement of intracellular cAMP levels in differentiated L6-myotubes (Biological Example 3); assay type: cell-based; settings: 0.25 h, intracellular cAMP in differentiated L6-myotubes; compound at 10 μM, activity relative to isoproterenol at 10 μM
Outline: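 Serum-starved differentiated L6 myotubes stimulated 15 min with test compound at 1×10^−5 M final (isoprenaline as reference) in HBSS with 1% BSA, 5 mM HEPES, 1 mM IBMX, pH 7.4. Cells EtOH-extracted, lysed, and intracellular cAMP measured by AlphaScreen.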

L6-myotubes [2] = assay: Glucose uptake in differentiated L6-myotubes (Biological Example 2); assay type: cell-based; settings: glucose uptake in differentiated L6-myotubes; compound at 10 μM, activity relative to isoproterenol at 10 μM; read-out: Biological example 2 (GU)
Outline: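 Differentiated L6 myotubes were serum-starved overnight in 0.5% fatty-acid-free BSA and then stimulated with compound or isoprenaline at 1×10^−5 M final. After 1 h 40 min cells were washed and re-dosed in glucose-free medium. Twenty minutes later, uptake of 50 nM ^3H-2-deoxyglucose over 10 min was measured by scintillation counting of NaOH lysates.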

SMILES | Emax at 10 µM (L6-myotubes [1]) | Emax at 10 µM (L6-myotubes [2])
COc1ccc(C[C@@]2(C)CC[C@H]([C@H](O)c3cccc(F)c3)N2)cc1 [Compound 366, (R)-{(2R,5R)-5-[(p-methoxyphenyl)methyl]-5-methyl-2-pyrrolidinyl}(m-fluorophenyl)methanol] | 25 to 50% | > 75%
COC(=O)[C@H]1CC[C@H](C(C)(C)NC[C@H](O)c2cccc(F)c2)CC1 [Compound 367, (1R,4r)-8-[(R)-2-(m-fluorophenyl)-2-hydroxyethylamino]-7-methoxy-p-menthan-7-one] | 25 to 50% | > 75%
CC(C)(NC[C@H](O)c1cccc(F)c1)[C@H]1CC[C@H](C(=O)O)CC1 [Compound 368, (1R,4r)-8-[(R)-2-(m-fluorophenyl)-2-hydroxyethylamino]-7-hydroxy-p-menthan-7-one] | < 25% | 25 to 50%
CC(C)(NC[C@H](O)c1cccc(F)c1)[C@H]1CC[C@@H](C(=O)O)CC1 [Compound 369] | < 25% | 50 to 75%
COC(=O)[C@H]1CC[C@H](C(C)(C)NC[C@H](O)c2cncc(F)c2)CC1 [Compound 370, (1R,4r)-8-[(R)-2-(5-fluoro-3-pyridyl)-2-hydroxyethylamino]-7-methoxy-p-menthan-7-one] | < 25% | > 75%
CC(C)(C[C@H]1CC[C@H](N)CC1)NC[C@H](O)c1cccc(F)c1 [Compound 371] | < 25% | > 75%
COc1ccc(C[C@@H]2CC[C@H]([C@@H](O)c3cccc(F)c3)N2)cc1 [Compound 372, (S)-{(2R,5S)-5-[(p-methoxyphenyl)methyl]-2-pyrrolidinyl}(m-fluorophenyl)methanol] | < 25% | > 75%
COc1ccc(C[C@@H]2CC[C@H]([C@H](O)c3cccc(F)c3)N2)cc1 [Compound 373, (R)-{(2R,5S)-5-[(p-methoxyphenyl)methyl]-2-pyrrolidinyl}(m-fluorophenyl)methanol] | 25 to 50% | > 75%
COc1ccc(C[C@H]2CC[C@H]([C@H](O)c3cccc(F)c3)N2)cc1 [Compound 374, (R)-{(2R,5R)-5-[(p-methoxyphenyl)methyl]-2-pyrrolidinyl}(m-fluorophenyl)methanol] | < 25% | > 75%
COc1ccc(C[C@H]2CC[C@H]([C@@H](O)c3cccc(F)c3)N2)cc1 [Compound 375, (S)-{(2R,5R)-5-[(p-methoxyphenyl)methyl]-2-pyrrolidinyl}(m-fluorophenyl)methanol] | < 25% | > 75%
Cc1ncccc1[C@@H](O)CNC(C)(C)C [Compound 376, (R)-2-(tert-butylamino)-1-(2-methyl-3-pyridyl)-1-ethanol] | 25 to 50% | > 75%
COc1ccc(C[C@@H]2CC[C@H]([C@@H](O)c3cncc(F)c3)N2)cc1 [Compound 377, (S)-{(2R,5S)-5-[(p-methoxyphenyl)methyl]-2-pyrrolidinyl}(5-fluoro-3-pyridyl)methanol] | < 25% | > 75%
COc1ccc(C[C@@H]2CC[C@H]([C@H](O)c3cncc(F)c3)N2)cc1 [Compound 378, (R)-{(2R,5S)-5-[(p-methoxyphenyl)methyl]-2-pyrrolidinyl}(5-fluoro-3-pyridyl)methanol] | < 25% | > 75%
COc1ccc(C[C@H]2CC[C@H]([C@H](O)c3cncc(F)c3)N2)cc1 [Compound 379, (R)-{(2R,5R)-5-[(p-methoxyphenyl)methyl]-2-pyrrolidinyl}(5-fluoro-3-pyridyl)methanol] | < 25% | > 75%
COc1ccc(C[C@H]2CC[C@H]([C@@H](O)c3cncc(F)c3)N2)cc1 [Compound 380, (S)-{(2R,5R)-5-[(p-methoxyphenyl)methyl]-2-pyrrolidinyl}(5-fluoro-3-pyridyl)methanol] | < 25% | > 75%
CC(C)(NC[C@H](O)c1cccc(F)c1)[C@H]1CC[C@H](N)CC1 [Compound 381] | < 25% | 50 to 75%
CC(C)(C[C@H]1CC[C@H](NS(C)(=O)=O)CC1)NC[C@H](O)c1cccc(F)c1 [Compound 382] | 25 to 50% | > 75%
CC(=O)N[C@H]1CC[C@H](CC(C)(C)NC[C@H](O)c2cccc(F)c2)CC1 [Compound 383] | 25 to 50% | > 75%

SMILES | Emax at 10 µM (L6-myotubes [1]) | Emax at 10 µM (L6-myotubes [2])
CC(C)(C[C@H]1CC[C@H](NC(=O)c2ccccc2)CC1)NC[C@H](O)c1cccc(F)c1 [Compound 384] | > 75% | > 75%
CC(C)(NC[C@H](O)c1cccc(F)c1)[C@H]1CC[C@H](NS(C)(=O)=O)CC1 [Compound 385, (R)-1-(m-fluorophenyl)-2-{1-methyl-1-[(1r,4R)-4-(mesylamino)cyclohexyl]ethylamino}-1-ethanol] | < 25% | 50 to 75%
CC(=O)N[C@H]1CC[C@H](C(C)(C)NC[C@H](O)c2cccc(F)c2)CC1 [Compound 386, N-[(1R,4r)-4-{1-[(R)-2-(m-fluorophenyl)-2-hydroxyethylamino]-1-methylethyl}cyclohexyl] acetamide] | < 25% | > 75%
CC(C)(C)NC[C@H](O)c1cccc(C#N)n1 [Compound 387, 6-[(S)-2-(tert-butylamino)-1-hydroxyethyl]-2-pyridinecarbonitrile] | 25 to 50% | > 75%
CC(C)(NC[C@H](O)c1cncc(F)c1)[C@H]1CC[C@H](C(=O)O)CC1 [Compound 390, (1R,4r)-8-[(R)-2-(5-fluoro-3-pyridyl)-2-hydroxyethylamino]-7-hydroxy-p-menthan-7-one] | < 25% | 50 to 75%
O[C@@H](c1cccc(F)c1)[C@H]1CC[C@@H](Cc2ccc(Cl)cc2)N1 [Compound 391, (S)-{(2R,5S)-5-[(p-chlorophenyl)methyl]-2-pyrrolidinyl}(m-fluorophenyl)methanol] | < 25% | 50 to 75%
O[C@H](c1cccc(F)c1)[C@H]1CC[C@@H](Cc2ccc(Cl)cc2)N1 [Compound 392, (R)-{(2R,5S)-5-[(p-chlorophenyl)methyl]-2-pyrrolidinyl}(m-fluorophenyl)methanol] | < 25% | > 75%
O[C@H](c1cccc(F)c1)[C@H]1CC[C@H](Cc2ccc(Cl)cc2)N1 [Compound 393, (R)-{(2R,5R)-5-[(p-chlorophenyl)methyl]-2-pyrrolidinyl}(m-fluorophenyl)methanol] | < 25% | > 75%
O[C@@H](c1cccc(F)c1)[C@H]1CC[C@H](Cc2ccc(Cl)cc2)N1 [Compound 394, (S)-{(2R,5R)-5-[(p-chlorophenyl)methyl]-2-pyrrolidinyl}(m-fluorophenyl)methanol] | < 25% | 50 to 75%
O[C@@H](c1cccc(F)c1)C12CCC(COCc3ccc(Cl)cc3)(CC1)N2 [Compound 395, (S)-(4-{[(p-chlorophenyl)methoxy]methyl}-7-azabicyclo[[2.2.1]]hept-1-yl)(m-fluorophenyl)methanol] | < 25% | 50 to 75%
O[C@H](c1cccc(F)c1)C12CCC(COCc3ccc(Cl)cc3)(CC1)N2 [Compound 396, (R)-(4-{[(p-chlorophenyl)methoxy]methyl}-7-azabicyclo[[2.2.1]]hept-1-yl)(m-fluorophenyl)methanol] | < 25% | > 75%
CC(C)(C)NC[C@H](O)c1cccc(C(F)(F)F)n1 [Compound 397, (S)-2-(tert-butylamino)-1-[6-(trifluoromethyl)-2-pyridyl]-1-ethanol] | < 25% | > 75%
CCOC(=O)CO[C@H]1CC[C@H](C(C)(C)NC[C@H](O)c2cccc(F)c2)CC1 [Compound 398, ethyl[[(1R,4r)-4-{1-[(R)-2-(m-fluorophenyl)-2-hydroxyethylamino]-1-methylethyl}cyclohexyloxy]]acetate] | < 25% | > 75%
CC(C)(C[C@H]1CC[C@@H](C#N)CC1)NC[C@H](O)c1cccc(F)c1 [Compound 399, (1S,4s)-4-{2-[(R)-2-(m-fluorophenyl)-2-hydroxyethylamino]-2-methylpropyl} cyclohexanecarbonitrile] | 25 to 50% | > 75%
COc1ccc(CC23CCC([C@@H](O)c4cccc(F)c4)(CC2)N3)cc1 [Compound 400, (S)-(m-fluorophenyl){4-[(p-methoxyphenyl)methyl]-7-azabicyclo[[2.2.1]]hept-1-yl}methanol] | < 25% | 50 to 75%
COc1ccc(CC23CCC([C@H](O)c4cccc(F)c4)(CC2)N3)cc1 [Compound 401, (R)-(m-fluorophenyl){4-[(p-methoxyphenyl)methyl]-7-azabicyclo[[2.2.1]]hept-1-yl}methanol] | < 25% | > 75%
CC(C)(NC[C@H](O)c1cccc(F)c1)[C@H]1CC[C@H](OCC(=O)O)CC1 [Compound 402] | < 25% | 50 to 75%
O[C@@H](c1cncc(F)c1)[C@H]1CC[C@@H](Cc2ccc(Cl)cc2)N1 [Compound 403, (S)-{(2R,5S)-5-[(p-chlorophenyl)methyl]-2-pyrrolidinyl}(5-fluoro-3-pyridyl)methanol] | < 25% | 50 to 75%
